Where a name gives a salt, the structure may show the parent alone. One block for each compound: values may come before it.
Experiments:
[1] = Water solubility test in distilled water
Protocol: 5 mg mangiferin powder which is weighed up accurately is put into 50 ml distilled water, the solution is shaked acutely 30 second every 5 minutes.
100 mg mangiferin calcium powder which is obtained by the method for preparation of example 8 and weighed up accurately is put into 50 ml distilled water, the solution is shaked acutely 30 second every 5 minutes.

[2] = Pharmacokinetics of mangiferin and mangiferin calcium after oral administration; format: in vivo, rats; conditions: rat, in vivo, po, 100 mg/kg
Protocol: 1, The Confect of Drug Solution
Mangiferin is suspended in Carboxymethyl cellulose sodium solution which concentration is one percent; the mangiferin concentration is 10 mg/mL, which is sample A.
All rats were fasted for 16 hours, free drinking water. The rats are oral administrated separately sample A and sample B, which dose is 100 mg/kg. The rats were taken whole blood in 5 minutes before oral administrated and 15 min, 30 min, 45 min, 60 min, 90 min, 120 min, 180 min, 240 min, 300 min, 360 min, 480 min after oral administrated. Serum is separated from these blood samples.
Serum Samples are extracted accurately 0.2 ml into centrifuge tubes separately; then 40 μL cold trichloroacetic acid solution which concentration is ten percent is added into centrifuge tubes separately. The samples are whorled 3 minutes; then centrifuged 12000 r/min for 10 minutes, 120 μl the up layer solution are extracted from centrifuge tubes and put into sample bottles separately. All the samples are detected by HPLC.
Apparatus: Angilent 1100 HPLC (American Agilent Co.), include G1312A dual pump G1313A Auto-Sampler.
Chromatographic column: discover ODS column (250 mm×6 mm, 5 μm);
The mobile phase: Acetonitrile—0.1% H3PO4 water (13:87 v/v)
Velocity of flow: 1.0 ml/min
Detection Wavelength: 254 nm.
Column temperature: 30° C.

STZ rats = assay: Efficacy in STZ model (plasma glucose, insulin, lipids, glucose clamp); format: in vivo, wistar rats; conditions: for Glucose infusion rate: glucose clamp; for FFA / GLU / INS / TG: high fat chow
Protocol: Rosiglitazone Hydrochloride tablets were purchased from Zhejiang wanma pharmaceutical Co., Ltd. Mangiferin and mangiferin calcium salts were suspended with 3% sodium carboxymethyl cellulose.
Normal female wistar rats (SPF, 3 months age, 180-200 g) were purchased from Hainan provincial peoples hospital experimental Animal Center. The animals were kept in a room temperature (25˜28° C.) with free access of food and water. A light-dark cycle (6 a.m and 6 p.m) was strictly enforced. High fat chow is composed of 55% basic chow, 2% protein, 16% fat, 27% white sugar.
Model: After the rats were fasted for 12 hours, the rats are injected 30-35 mg/kg streptozotocin (STZ) solution once by tail vein. STZ solution is prepared to 2% concentration with […], pH 4.4 citrate-sodium citrate buffer before use. The model rats were weighed, taked out tail vein blood, tested blood glucose when the Model is done after 14 days after fasting for 12 hours, then injected 20% glucose solution ([…]) by intraperitoneal, determined blood glucose in 0.5 h, 1 h, 2 h. The rats whose glucose tolerance is abnormal were brought into experiments. Normal wistar rats were fed normal chow, model rats were fed high fat chow.
Experimental group:normal wistar rats group (n=10); after Diabetes model is succeed, the rats were randomly divided into 7 groups: Diabetes model group (n=10); mangiferin groups (20, 40, 80 mg/kg, each 10 rats); mangiferin calcium groups (10, 20, 40 mg/kg, each 10 rats); Rosiglitazone Hydrochloride group [3 mg/kg, n=10]. Test samples or vehicle control was given orally for 8 weeks. Diabetes model group and normal group were given vehicle.
Determination of insulin sensitivity (Glucose infusion rate): Using glucose clamp technique, in accordance with Konglingdong'method ? KONG Ling-dong, ZHU Liang-zheng, SONG Ju-min, etc al. Intervention Effects of Tiaozhi Jiangtang Tablet on Insulin Resistance in Rats with Diabetes Mellitus Type 2.
Determination of plasma glucose and lipid: Rats were taken whole blood after killed, then serum was separated, determined plasma glucose (GLU), insulin (INS), triglycerides (TG) and free fatty acids (FFA).
GLU and TG levels were determined using GF-D800 semi-auto chemist which was purchased from Shandong Gaomi Caihong Analytical Instrument Co., Ltd. Free fatty acids were determined using copper colorimetric determination. The kits for Determination of free fatty acids were purchased from Nanjing Jiancheng Bioengineering Institute. Insulin: radioimmunoassay (RIA), γ counter counts. insulin RIA Kit was purchased from Shandong Weifang City three-dimensional (3V) Biological company.
Statistics: The results have been calculated as mean±SD ( x±SD) and compareisons of the data have been done by t-test.

GK rats = assay: Efficacy in GK model (plasma glucose, insulin, lipids); format: in vivo, Goto-Kakizaki rats (GK)
Protocol: Rosiglitazone Hydrochloride tablets were purchased from Zhejiang wanma pharmaceutical Co., Ltd. Mangiferin and mangiferin calcium were suspended with 3% sodium carboxymethyl cellulose before use.
Goto-Kakizaki rats (GK) (16 weeks age, ♀ ♂) were purchased from Shanghai SLAC laboratory animal Co., Ltd. The animals were kept in IVC cages with temperature (22° C.). There are two rats in each cage.
Experimental group: GK rats group (n=10); mangiferin groups (20, 40, 80 mg/kg, each 10 rats); mangiferin calcium groups (10, 20, 40 mg/kg, each 10 rats); Rosiglitazone Hydrochloride group [3 mg/kg, n=10]. Test samples or vehicle control was given orally for 30 days. GK rats group were given vehicle.
The blood specimens were taken by abdominal aorta at the end of the test. Plasma glucose (GLU), insulin (INS), triglycerides (TG), total cholesterol (TC), high density lipoprotein (HDL), low density lipoprotein (LDL) were determined
GLU, TC, TG, HDL and LDL levels were determined using GF-D800 semi-auto chemist which was purchased from Shandong Gaomi Caihong Analytical Instrument Co., Ltd. Insulin: radioimmunoassay (RIA), γ counter counts. insulin RIA Kit was purchased from Shandong Weifang City three-dimensional (3V) Biological company.
Statistics: The results have been calculated as mean±SD ( x±SD) and comparisons of the data have been done by t-test.

- dissolves in 30 minutes ([1]; 5 mg powder in 50 ml distilled water): can't be dissolved
- solubility at 30 min ([1]; water, thermodynamic from solid): < 100 µg/mL
- AUC(0-inf) [2]: 31100 ng·h/mL
- Cmax [2]: 14800 ± 500 ng/mL
- T1/2β [2]: 45.7 ± 8.3 min
Structure (SMILES): O=c1c2cc(O)c(O)cc2oc2cc(O)c(C3OC(CO)C(O)C(O)C3O)c(O)c12 (stereo not shown) [Mangiferin]
- improvement of GLU, TG, FFA, INS, Glucose infusion rate in diabetic rats (STZ rats; 20 mg/kg orally for 8 weeks): does not significantly improve
- Glucose infusion rate (STZ rats; 20 mg/kg orally for 8 weeks): 15.75 ± 3.69 mg/kg · min
- Glucose infusion rate (STZ rats; 40 mg/kg orally for 8 weeks): 18.32 ± 3.89 mg/kg · min
- Glucose infusion rate (STZ rats; 80 mg/kg orally for 8 weeks): 23.65 ± 3.67 mg/kg · min
- FFA (STZ rats; 20 mg/kg orally for 8 weeks): 1.79 ± 0.24 µmol/L
- GLU (STZ rats; 20 mg/kg orally for 8 weeks): 10.56 ± 0.38 mmol/L
- INS (STZ rats; 20 mg/kg orally for 8 weeks): 33.42 ± 3.79 μ IU/ml
- TG (STZ rats; 20 mg/kg orally for 8 weeks): 3.42 ± 0.41 mmol/L
- FFA (STZ rats; 40 mg/kg orally for 8 weeks): 1.56 ± 0.19 µmol/L
- GLU (STZ rats; 40 mg/kg orally for 8 weeks): 8.45 ± 0.23 mmol/L
- INS (STZ rats; 40 mg/kg orally for 8 weeks): 28.13 ± 3.74 μ IU/ml
- TG (STZ rats; 40 mg/kg orally for 8 weeks): 2.82 ± 0.22 mmol/L
- FFA (STZ rats; 80 mg/kg orally for 8 weeks): 1.29 ± 0.34 µmol/L
- GLU (STZ rats; 80 mg/kg orally for 8 weeks): 7.05 ± 0.44 mmol/L
- INS (STZ rats; 80 mg/kg orally for 8 weeks): 24.35 ± 3.46 μ IU/ml
- TG (STZ rats; 80 mg/kg orally for 8 weeks): 1.82 ± 0.32 mmol/L
- GLU (GK rats; 20 mg/kg orally for 30 days): 19.65 ± 5.07 mmol/L
- HDL (GK rats; 20 mg/kg orally for 30 days): 0.68 ± 0.12 mmol/L
- INS (GK rats; 20 mg/kg orally for 30 days): 26.94 ± 4.89 μ IU/ml
- LDL (GK rats; 20 mg/kg orally for 30 days): 1.56 ± 0.26 mmol/L
- TC (GK rats; 20 mg/kg orally for 30 days): 2.54 ± 0.28 mmol/L
- TG (GK rats; 20 mg/kg orally for 30 days): 1.69 ± 0.31 mmol/L
- improvement of GLU, TC, TG, HDL and LDL and INS in diabetic GK rats (GK rats; 20 mg/kg orally for 30 days): does not significantly improve
- GLU (GK rats; 40 mg/kg orally for 30 days): 20.33 ± 4.09 mmol/L
- HDL (GK rats; 40 mg/kg orally for 30 days): 0.75 ± 0.13 mmol/L
- INS (GK rats; 40 mg/kg orally for 30 days): 24.44 ± 1.91 μ IU/ml
- LDL (GK rats; 40 mg/kg orally for 30 days): 1.33 ± 0.41 mmol/L
- TC (GK rats; 40 mg/kg orally for 30 days): 2.50 ± 0.45 mmol/L
- TG (GK rats; 40 mg/kg orally for 30 days): 1.61 ± 0.22 mmol/L
- improvement of TG, HDL and LDL in diabetic GK rats (GK rats; 40 mg/kg orally for 30 days): improves
- GLU (GK rats; 80 mg/kg orally for 30 days): 20.57 ± 4.13 mmol/L
- HDL (GK rats; 80 mg/kg orally for 30 days): 0.78 ± 0.11 mmol/L
- INS (GK rats; 80 mg/kg orally for 30 days): 16.68 ± 1.76 μ IU/ml
- LDL (GK rats; 80 mg/kg orally for 30 days): 1.30 ± 0.38 mmol/L
- TC (GK rats; 80 mg/kg orally for 30 days): 2.45 ± 0.31 mmol/L
- TG (GK rats; 80 mg/kg orally for 30 days): 1.59 ± 0.16 mmol/L

Structure (SMILES): CN(CCOc1ccc(CC2SC(=O)NC2=O)cc1)c1ccccn1 (stereo not shown) [Rosiglitazone, Rosiglitazone Hydrochloride]
- Glucose infusion rate (STZ rats; 3 mg/kg orally for 8 weeks): 24.75 ± 3.69 mg/kg · min
- FFA (STZ rats; 3 mg/kg orally for 8 weeks): 1.25 ± 0.13 µmol/L
- GLU (STZ rats; 3 mg/kg orally for 8 weeks): 7.49 ± 2.18 mmol/L
- INS (STZ rats; 3 mg/kg orally for 8 weeks): 19.87 ± 4.21 μ IU/ml
- TG (STZ rats; 3 mg/kg orally for 8 weeks): 1.44 ± 0.16 mmol/L
- GLU (GK rats; 3 mg/kg orally for 30 days): 24.38 ± 2.26 mmol/L
- HDL (GK rats; 3 mg/kg orally for 30 days): 0.78 ± 0.07 mmol/L
- INS (GK rats; 3 mg/kg orally for 30 days): 17.58 ± 9.80 μ IU/ml
- LDL (GK rats; 3 mg/kg orally for 30 days): 1.37 ± 0.19 mmol/L
- TC (GK rats; 3 mg/kg orally for 30 days): 2.40 ± 0.17 mmol/L
- TG (GK rats; 3 mg/kg orally for 30 days): 1.48 ± 0.12 mmol/L
